Reference: patent US6969711B2, “Cyclic diamine compounds and medicine containing the same” (Kowa Company, Ltd., priority 1997, dated 2005)
Values after ≈ are worked out from the molar mass of the structure shown.

Key:
[1] = Disintegration test (solubility in liquid No. 1 of the Japanese Pharmacopoeia); assay type: physicochemical; details: simulated gastric fluid, thermodynamic from solid; liquid No. 1 for disintegration test (Japanese Pharmacopoeia), pH 1.2, shaken two hours, room temperature, 0.45 μm filtrate
Text: Compounds of the present invention and the compounds mentioned in the previously-filed Japanese Patent Applications Hei-09/88660 (hereinafter, referred to as “A”) and Hei-09/90146 (hereinafter, referred to as “B”) as controls were suspended in a liquid No. 1 for disintegration test regulated by the Japanese Pharmacopoeia, shaken for two hours, allowed to stand at room temperature for one hour and filtered through a membrane filter of 0.45 μm. Absorbance of a mixture of this filtrate with methanol in the same amounts was measured and, from the previously-determined ε1% 1cm values, solubility was calculated.

J774 cells = test: ACAT inhibitory action (anti-foaming action) in J774 cells; assay type: cell-based; details: Mus musculus, 10 μg/ml 25-OH cholesterol, 18 hours, cholesterol ester per protein, read-out: Enzyme (J774) IC50
HepG2 cells = test: ACAT inhibitory action (anti-foaming action) in HepG2 cells; assay type: cell-based; details: Homo sapiens, 10 μg/ml 25-OH cholesterol, 18 hours, cholesterol ester per protein, read-out: Enzyme (HepG2) IC50

solubility at 2 h [1] [µg/mL]	IC50 (J774 cells) [nM]	melting point [°C]	IC50 (HepG2 cells) [nM]	Compound
0.05 (≈ 0.000118 mM)				CC(C)c1cccc(C(C)C)c1NC(=O)CCCCCSc1nc2ccccc2o1 [Control 6, 6-(Benzoxazol-2-ylthio)-N-(2,6-diisopropylphenyl)hexanamide, reference compound]
	320			CCCCCCCCCN(CC(C)(C)C)C(=O)N[C@H]1CCCC[C@@H]1OC(=O)CCNC(=O)C1OC(C)(C)OCC1(C)C (stereo partly shown) [Control 3, reference compound]
14000 (≈ 29.1 mM)				CC(C)c1cccc(C(C)C)c1NC(=O)CN1CCN(CCSc2nc3ccccc3o2)CC1 [Example 1, 2-[4-[2-(benzoxazol-2-ylthio)ethyl]-piperazin-1-yl]-N-(2,6-diisopropylphenyl)acetamide]
170 to 180 (≈ 0.363 to 0.385 mM)				CC(C)c1cccc(C(C)C)c1NC(=O)CCCCCSc1nc2cc(N(C)C)ccc2o1 [Control 8, 6-[5-(N,N-Dimethylamino)-benzoxazol-2-ylthio]-N-(2,6-diisopropylphenyl)hexanamide, reference compound]
	270	135 to 136	4900	COC(=O)c1cccc2nc(SCCCN3CCN(CC(=O)Nc4c(C(C)C)cccc4C(C)C)CC3)oc12 [Example 10, 2-[4-[3-(7-methoxycarbonylbenzoxazol-2-ylthio)propyl]piperazin-1-yl]-N-(2,6-diisopropylphenyl)acetamide]
	100	173 to 175	1450	COC(=O)c1cccc2oc(SCCN3CCN(CC(=O)Nc4c(C(C)C)cccc4C(C)C)CC3)nc12 [Example 5, 2-[4-[2-(4-methoxycarbonylbenzoxazol-2-ylthio)ethyl]-piperazin-1-yl]-N-(2,6-diisopropylphenyl)acetamide]
7400 (≈ 14.5 mM)		109 to 111		CC(C)c1cccc(C(C)C)c1NC(=O)CN1CCCN(CCCSc2nc3ccccc3o2)CC1 [Example 13, 2-[4-[3-(benzoxazol-2-ylthio)propyl]-homopiperazin-1-yl]-N-(2,6-diisopropylphenyl)acetamide]
360 to 400 (≈ 0.747 to 0.83 mM)				CC(C)c1cccc(C(C)C)c1NC(=O)CCCCCSc1nc2cc(CN(C)C)ccc2o1 [Control 7, 6-[5-(N,N-Dimethylaminomethyl)-benzoxazol-2-ylthio]-N-(2,6-diisopropylphenyl)hexanamide, reference compound]
17000 (≈ 33.7 mM)		140 to 141		CSc1cc(C)nc(SC)c1NC(=O)CN1CCN(CCSc2nc3ccccc3o2)CC1 [Example 24, 2-[4-[2-(benzoxazol-2-ylthio)ethyl]piperazin-1-yl]-N-(2,4-bis(methylthio)-6-methyl-3-pyridyl)acetamide]
		201 to 203		CC(C)c1cc(O)cc(C(C)C)c1NC(=O)CN1CCN(CCCSc2nc3ccccc3o2)CC1 [Example 118, 2-[4-[3-(benzoxazol-2-ylthio)propyl]piperazin-1-yl]-N-(2,6-diisopropyl-4-hydroxyphenyl)acetamide]
		99 to 100		CCOCCOc1ccc(C(C)C)c(NC(=O)CN2CCN(CCCSc3nc4ccccc4o3)CC2)c1C(C)C [Example 71, 2-[4-[3-(benzoxazol-2-ylthio)propyl]piperazin-1-yl]-N-[2,6-diisopropyl-3-(2-ethoxyethyloxy)phenyl]acetamide]

Compound	solubility at 2 h [1] [µg/mL]	IC50 (J774 cells) [nM]	melting point [°C]	IC50 (HepG2 cells) [nM]
CC(C)c1cccc(C(C)C)c1NC(=O)CN1CCN(CCSc2nc3ncccc3o2)CC1 [Example 6, 2-[4-[2-(oxazolo[4,5-b]pyridine-2-ylthio)ethyl]-piperazin-1-yl]-N-(2,6-diisopropylphenyl)acetamide]	35000 (≈ 72.7 mM)		153 to 154	
